The source of these data is patent US10738056B2 (Aduro BioTech, Inc., priority 2017, dated 2020).

Each structure is given as a SMILES string.

In assay [1] the test system is cGAS/STING pathway in THP1 cells. The assay is described as follows: THP1 cell-based cGAS/STING pathway activity assay (IRF-3-linked luciferase reporter). The settings on record: Homo sapiens, THP-1. Put shortly: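 THP1 cells carrying an IRF-3-driven luciferase reporter were read across a range of compound concentrations, and IC50 values were derived from these concentration responses; the assay upper limit was 100 μM.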

Assay [2] concerns the target Human cGAS amino acids 155-522 (Homo sapiens (Human), UniProt Q8N884). The assay is described as follows: cGAS biochemical activity assay (ATP remaining, Kinase-Glo Max luminescence). As to conditions: human cGAS 155-522, ATP remaining (Kinase-Glo Max); read-out: cGAS IC50.

Sequence of Human cGAS amino acids 155-522 (Q8N884 157-522): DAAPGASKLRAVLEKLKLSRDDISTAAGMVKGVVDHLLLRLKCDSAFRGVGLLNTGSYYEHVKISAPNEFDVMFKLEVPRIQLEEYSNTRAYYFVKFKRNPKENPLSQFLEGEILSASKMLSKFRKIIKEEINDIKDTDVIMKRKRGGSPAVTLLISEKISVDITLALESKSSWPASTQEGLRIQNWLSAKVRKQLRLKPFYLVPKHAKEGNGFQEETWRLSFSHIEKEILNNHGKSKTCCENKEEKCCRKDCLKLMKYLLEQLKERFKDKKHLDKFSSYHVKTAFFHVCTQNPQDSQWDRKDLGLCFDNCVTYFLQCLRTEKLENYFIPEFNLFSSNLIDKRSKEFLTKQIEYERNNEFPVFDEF

As for `COCCn1ccc(NC(=O)c2c(C)[nH]c3c(-c4ccccc4)c(C(F)(F)F)nn3c2=O)n1` [Compound A1115, N-(1-(2-methoxyethyl)-1H-pyrazol-3-yl)-5-methyl-7-oxo-3-phenyl-2-(trifluoromethyl)-4,7-dihydropyrazolo[1,5-a]pyrimidine-6-carboxamide], the IC50 in assay [1] is greater than 100 µM; in assay [2] it was 20 to 250 µM.

With `Cc1[nH]c2c(-c3ccccc3)c(C(F)(F)F)nn2c(=O)c1-c1nc(CO)c(C(C)C)o1` [Compound C1143, 6-(4-(hydroxymethyl)-5-isopropyloxazol-2-yl)-5-methyl-3-phenyl-2-(trifluoromethyl)pyrazolo[1,5-a]pyrimidin-7(4H)-one], the IC50 in assay [1] was greater than 100 µM; in assay [2] it was less than 20 µM.

With `Cc1cc(NC(=O)c2c(C)[nH]c3c(-c4ccccc4)c(C(F)(F)F)nn3c2=O)[nH]n1` [Compound A1081, 5-methyl-N-(3-methyl-1H-pyrazol-5-yl)-7-oxo-3-phenyl-2-(trifluoromethyl)-4,7-dihydropyrazolo[1,5-a]pyrimidine-6-carboxamide], the IC50 was 20 to 100 µM in assay [1] and less than 20 µM in assay [2].

Take `Cc1[nH]c2c(-c3ccccc3)c(C(F)(F)F)nn2c(=O)c1-c1nc2ccccc2n1-c1ccccc1` [Compound C1229, 5-methyl-3-phenyl-6-(1-phenyl-1H-benzo[d]imidazol-2-yl)-2-(trifluoromethyl)pyrazolo[1,5-a]pyrimidin-7(4H)-one]: the IC50 in assay [1] was less than 20 µM; in assay [2], 20 to 250 µM.

Consider `Cc1[nH]c2c(-c3ccccc3)c(C(F)(F)F)nn2c(=O)c1-c1nnc(C2(C)CCCOC2)o1` (stereo not shown) [Compound D1051, 5-methyl-6-(5-(3-methyltetrahydro-2H-pyran-3-yl)-1,3,4-oxadiazol-2-yl)-3-phenyl-2-(trifluoromethyl)pyrazolo[1,5-a]pyrimidin-7(4H)-one], for which the IC50 in assay [1] is greater than 100 µM; in assay [2], 20 to 250 µM.

Consider `CC(=O)NCCOc1cccc2oc(-c3c(C)[nH]c4c(-c5ccccc5)c(C(F)(F)F)nn4c3=O)nc12` [Compound C1062, N-(2-((2-(5-methyl-7-oxo-3-phenyl-2-(trifluoromethyl)-4,7-dihydropyrazolo[1,5-a]pyrimidin-6-yl)benzo[d]oxazol-4-yl)oxy)ethyl)acetamide], for which the IC50 in assay [1] was greater than 100 µM; in assay [2], less than 20 µM.

Regarding `COc1ccccc1NC(=O)c1c(C)[nH]c2c(-c3ccccc3)c(C(F)(F)F)nn2c1=O` [Compound A1031, N-(2-methoxyphenyl)-5-methyl-7-oxo-3-phenyl-2-(trifluoromethyl)-4,7-dihydropyrazolo[1,5-a]pyrimidine-6-carboxamide], the IC50 was greater than 100 µM in assay [1] and less than 20 µM in assay [2].

`COC[C@@H]1COC(c2c(C)[nH]c3c(-c4ccccc4)c(C(F)(F)F)nn3c2=O)=N1` [Compound C1184, (R)-6-(4-(methoxymethyl)-4,5-dihydrooxazol-2-yl)-5-methyl-3-phenyl-2-(trifluoromethyl)pyrazolo[1,5-a]pyrimidin-7(4H)-one]: the values for the IC50 in assay [1] and in assay [2] were greater than 100 µM and less than 20 µM, respectively.

As to `Cc1[nH]c2c(-c3ccccc3)c(C(F)(F)F)nn2c(=O)c1-c1nnc(C2COCCN2S(C)(=O)=O)o1` (stereo not shown) [Compound D1047, 5-methyl-6-(5-(4-(methylsulfonyl)morpholin-3-yl)-1,3,4-oxadiazol-2-yl)-3-phenyl-2-(trifluoromethyl)pyrazolo[1,5-a]pyrimidin-7(4H)-one], the IC50 was greater than 100 µM in assay [1] and less than 20 µM in assay [2].

Regarding `Cc1[nH]c2c(-c3ccccc3)c(C(F)(F)F)nn2c(=O)c1C(=O)Nc1cccc(C#N)c1` [Compound A1070, N-(3-cyanophenyl)-5-methyl-7-oxo-3-phenyl-2-(trifluoromethyl)-4,7-dihydropyrazolo[1,5-a]pyrimidine-6-carboxamide], the IC50 in assay [1] and in assay [2] was less than 20 µM in each case.

Turning to `COc1c(Cl)ccc2oc(-c3c(C)[nH]c4c(-c5ccccc5)c(C#N)nn4c3=O)nc12` [Compound C1206, 6-(5-chloro-4-methoxybenzo[d]oxazol-2-yl)-5-methyl-7-oxo-3-phenyl-4,7-dihydropyrazolo[1,5-a]pyrimidine-2-carbonitrile], the figures for the IC50 in assay [1] and in assay [2] were greater than 100 µM and less than 20 µM, respectively.

On to `Cc1[nH]c2c(-c3ccccc3)c(C#N)nn2c(=O)c1-c1nc2ccc(N)cc2o1` [Compound C1193, 6-(6-aminobenzo[d]oxazol-2-yl)-5-methyl-7-oxo-3-phenyl-4,7-dihydropyrazolo[1,5-a]pyrimidine-2-carbonitrile], for which the IC50 is greater than 100 µM in assay [1] and less than 20 µM in assay [2].

Consider `COc1cccc2oc(-c3c(C(=O)NC4CCOCC4)[nH]c4c(-c5ccccc5)c(C(F)(F)F)nn4c3=O)nc12` [Compound C1194, 6-(4-methoxybenzo[d]oxazol-2-yl)-7-oxo-3-phenyl-N-(tetrahydro-2H-pyran-4-yl)-2-(trifluoromethyl)-4,7-dihydropyrazolo[1,5-a]pyrimidine-5-carboxamide], for which the IC50 is greater than 100 µM in assay [1] and less than 20 µM in assay [2].

For `Cc1[nH]c2c(-c3ccccc3)c(C(F)(F)F)nn2c(=O)c1C(=O)Nc1cccc2c1OCC2` [Compound A1101, N-(2,3-dihydrobenzofuran-7-yl)-5-methyl-7-oxo-3-phenyl-2-(trifluoromethyl)-4,7-dihydropyrazolo[1,5-a]pyrimidine-6-carboxamide], the IC50 in assay [1] and in assay [2] was less than 20 µM each time.

In the case of `COc1cccc2oc(-c3c(C(=O)NCc4cc[nH]n4)[nH]c4c(-c5ccccc5)c(C(F)(F)F)nn4c3=O)nc12` [Compound C1245, N-((1H-pyrazol-3-yl)methyl)-6-(4-methoxybenzo[d]oxazol-2-yl)-7-oxo-3-phenyl-2-(trifluoromethyl)-4,7-dihydropyrazolo[1,5-a]pyrimidine-5-carboxamide], the IC50 was greater than 100 µM in assay [1] and less than 20 µM in assay [2].

As for `Cc1[nH]c2c(-c3ccccc3)c(C(F)(F)F)nn2c(=O)c1C(=O)Nc1ccccc1` [Compound A1002, 5-methyl-7-oxo-N,3-diphenyl-2-(trifluoromethyl)-4,7-dihydropyrazolo[1,5-a]pyrimidine-6-carboxamide], the IC50 is 20 to 100 µM in assay [1] and less than 20 µM in assay [2].

Take `Cc1[nH]c2c(-c3ccccc3)c(C(F)(F)F)nn2c(=O)c1C(=O)Nc1cccc(N)c1` [Compound A1069, N-(3-aminophenyl)-5-methyl-7-oxo-3-phenyl-2-(trifluoromethyl)-4,7-dihydropyrazolo[1,5-a]pyrimidine-6-carboxamide]: the figures for the IC50 in assay [1] and in assay [2] were 20 to 100 µM and less than 20 µM, respectively.

Turning to `CCc1[nH]c2c(-c3ccccc3)c(C(F)(F)F)nn2c(=O)c1-c1nc2c(OC)cccc2o1` [Compound C1183, 5-ethyl-6-(4-methoxybenzo[d]oxazol-2-yl)-3-phenyl-2-(trifluoromethyl)pyrazolo[1,5-a]pyrimidin-7(4H)-one], the IC50 in assay [1] and in assay [2] was less than 20 µM each time.

With `COCc1[nH]c2c(-c3ccccc3)c(C#N)nn2c(=O)c1-c1nc2c(OC)nccc2o1` [Compound C1246, 5-(methoxymethyl)-6-(4-methoxyoxazolo[4,5-c]pyridin-2-yl)-7-oxo-3-phenyl-4,7-dihydropyrazolo[1,5-a]pyrimidine-2-carbonitrile], the IC50 in assay [1] is greater than 100 µM; in assay [2], less than 20 µM.

`CO[C@](c1ccccc1)(c1nnc(-c2c(C)[nH]c3c(-c4ccccc4)c(C(F)(F)F)nn3c2=O)o1)C(F)(F)F` [Compound D1029, (R)-5-methyl-3-phenyl-6-(5-(2,2,2-trifluoro-1-methoxy-1-phenylethyl)-1,3,4-oxadiazol-2-yl)-2-(trifluoromethyl)pyrazolo[1,5-a]pyrimidin-7(4H)-one]: the IC50 was greater than 100 µM in assay [1] and less than 20 µM in assay [2].

In the case of `Cc1[nH]c2c(-c3ccccc3)c(C(F)(F)F)nn2c(=O)c1-c1nc2c(=O)[nH]ccc2o1` [Compound C1116, 2-(5-methyl-7-oxo-3-phenyl-2-(trifluoromethyl)-4,7-dihydropyrazolo[1,5-a]pyrimidin-6-yl)oxazolo[4,5-c]pyridin-4(5H)-one], the IC50 in assay [1] was greater than 100 µM; in assay [2], less than 20 µM.

For the compound `COc1cccc2nc(-c3c(C)[nH]c4c(-c5ccccc5)c(C(F)(F)F)nn4c3=O)n(C)c12` [Compound C1065, 6-(7-methoxy-1-methyl-1H-benzo[d]imidazol-2-yl)-5-methyl-3-phenyl-2-(trifluoromethyl)pyrazolo[1,5-a]pyrimidin-7(4H)-one], the IC50 is greater than 100 µM in assay [1] and 20 to 250 µM in assay [2].

For the compound `COc1cc(N(C)C)cc2oc(-c3c(C)[nH]c4c(-c5ccccc5)c(C(F)(F)F)nn4c3=O)nc12` [Compound C1162, 6-(6-(dimethylamino)-4-methoxybenzo[d]oxazol-2-yl)-5-methyl-3-phenyl-2-(trifluoromethyl)pyrazolo[1,5-a]pyrimidin-7(4H)-one], the IC50 in assay [1] and in assay [2] was less than 20 µM in each case.

In the case of `Cc1[nH]c2c(-c3ccccc3)c(C(F)(F)F)nn2c(=O)c1C(=O)Nc1cccnc1S(C)(=O)=O` [Compound A1096, 5-methyl-N-(2-(methylsulfonyl)pyridin-3-yl)-7-oxo-3-phenyl-2-(trifluoromethyl)-4,7-dihydropyrazolo[1,5-a]pyrimidine-6-carboxamide], the IC50 in assay [1] was 20 to 100 µM; in assay [2], less than 20 µM.

`Cc1[nH]c2c(-c3ccccc3)c(C(F)(F)F)nn2c(=O)c1-c1nnc(N2CCCCC2)o1` [Compound D1020, 5-methyl-3-phenyl-6-(5-(piperidin-1-yl)-1,3,4-oxadiazol-2-yl)-2-(trifluoromethyl)pyrazolo[1,5-a]pyrimidin-7(4H)-one]: the IC50 in assay [1] is greater than 100 µM; in assay [2], less than 20 µM.

Regarding `Cc1[nH]c2c(-c3ccccc3)c(C(F)(F)F)nn2c(=O)c1C(=O)NS(C)(=O)=O` [Compound A1117, 5-methyl-N-(methylsulfonyl)-7-oxo-3-phenyl-2-(trifluoromethyl)-4,7-dihydropyrazolo[1,5-a]pyrimidine-6-carboxamide], the IC50 in assay [1] is greater than 100 µM; in assay [2] it was 20 to 250 µM.
